From patent US20170087562A1, “METHOD FOR DETERMINING TREATMENT RESPONSE OF CELLS” (NATIONAL CHENG KUNG UNIVERSITY, priority 2015, published 2017) come the findings set out here.

The structures appear in SMILES notation.

Assay [1] concerns lung cancer cells AS2. Briefly: Traveling-wave dielectrophoresis moving speed of cells after Taxol. The assay is classed as cell-based. The following applies: 24 hours after treatment. The text has this:
The principle of the traveling-wave dielectrophoresis is similar with the electrorotation. The test cells can be pushed away by the electrodes when applying a negative electrophoresis force (nDEP) through two set of parallel electrode 13 and 14, so that the influence on the moving condition resulting from the friction between the test cells and chip surface can be reduced. The two set of parallel electrode 13 and 14 individually include several electrodes having a width ranged from 0.1 to 1000 microns, preferably 0.5 to 100 microns, for example 1 micron, 20 microns, 40 microns, 50 microns, or 60 microns; the width of the intervals ranged from 0.1 to 1000 microns, preferably 0.5 to 100 microns, for example 1 micron, 20 microns, 40 microns, 50 microns, or 60 microns. Moreover, in this uneven electric field, the electric signal has a periodic variation in value and direction (such as a sine wave), for example, 360/N of sine wave signal are subsequently applied to the parallel electrodes, wherein N is preferably equal to 4, so that the sine wave of the electrodes have intervals of 90 degrees from each other, but N is not limited thereto. The wave signal of each electrode continuously changes the phase thereof by time to provide the source of the moving force for traveling-wave electrophoresis. […]

Assay [2] has as its system lung cancer cells AS2. Briefly: Corresponding cell analysis after Taxol (cell death, proliferation inhibition/cells kill). The assay is classed as cell-based. The source says:
The moving speed of the cell can be obtained by analyzing the moving distance perpendicular to the electrode at different time points. […]. […] The treatment response includes proliferation inhibition/cells kill which are the important indicators for determining whether the chemotherapy is effective on clinical. Therefore, the conclusion of the treatment response of cells to the treatment method can be obtained fast by using electrorotation, and the treatment effect of the clinical treatment can be estimated with high reliability, so that the analysis period indeed can be substantially shorten (24 hrs v.s. 48 hrs).

On to `CC(=O)O[C@H]1C(=O)[C@@]2(C)[C@H]([C@H](OC(=O)c3ccccc3)[C@]3(O)C[C@H](OC(=O)[C@H](O)[C@@H](NC(=O)c4ccccc4)c4ccccc4)C(C)=C1C3(C)C)[C@]1(OC(C)=O)CO[C@@H]1C[C@@H]2O` [Taxol], for which the “moving speed versus placebo (only DMSO)” value in the assay with lung cancer cells AS2 [1] is on record as “much slower”. The proliferation inhibition/cells kill result in the assay on lung cancer cells AS2 [2] (24 hours) is listed as “obvious”. In the assay on lung cancer cells AS2 [2] (48 hours), the cell death entry is “obvious” and the proliferation inhibition/cells kill entry is “obvious”.
